The NIST ThermoML archive (doi:10.1021/je200226z)
± gives the expanded uncertainty stated by the source.

Assay: mn = molality of the nth substance listed, in mol/kg
Details: 298.15 K, 101 kPa, Liquid, Westphal Balance

Structure (SMILES)	mass density (m1 = 0.05) [kg/m3]	mass density (m1 = 0.1) [kg/m3]	mass density (m1 = 0.15) [kg/m3]	mass density (m1 = 0.25) [kg/m3]	mass density (m1 = 0.5) [kg/m3]	mass density (m1 = 0.75) [kg/m3]	mass density (m1 = 1) [kg/m3]	mass density (m1 = 0.02) [kg/m3]	mass density (m1 = 0.06) [kg/m3]	mass density (m1 = 0.2) [kg/m3]
C=CCn1cc[n+](C)c1.[Cl-] [1-allyl-3-methylimidazolium chloride] + O	998.1 ± 0.14	999 ± 0.14	999.8 ± 0.14	1001.3 ± 0.14	1004.8 ± 0.14	1007.8 ± 0.13	1010.3 ± 0.12	–	–	–
OC[C@H]1O[C@@](CO)(O[C@H]2O[C@H](CO)[C@@H](O)[C@H](O)[C@H]2O)[C@@H](O)[C@@H]1O [D-sucrose] + O	–	1009.9 ± 0.14	1016.06 ± 0.14	1027.95 ± 0.14	–	–	–	999.72 ± 0.14	1004.87 ± 0.14	1022.12 ± 0.14
